In patent US20220168307A1, “TREATMENT OF SMA” (Hoffmann-La Roche Inc., priority 2019, published 2022):
Several values for one entry are separate records, joined by “and”; a condition that tells them apart may be missing. Equal values may be shown once. Entries after “also recorded” stand apart in the source; their conditions may differ. Read-outs that look alike come from different tables or passages of the source.

Tests used:
[1] = target: T1, CYP1A2 (Homo sapiens, UniProt P05177); assay: in vitro; conditions: pooled human liver microsomes, pH 7.4, probe phenacetin
T1 sequence (P05177 1-516): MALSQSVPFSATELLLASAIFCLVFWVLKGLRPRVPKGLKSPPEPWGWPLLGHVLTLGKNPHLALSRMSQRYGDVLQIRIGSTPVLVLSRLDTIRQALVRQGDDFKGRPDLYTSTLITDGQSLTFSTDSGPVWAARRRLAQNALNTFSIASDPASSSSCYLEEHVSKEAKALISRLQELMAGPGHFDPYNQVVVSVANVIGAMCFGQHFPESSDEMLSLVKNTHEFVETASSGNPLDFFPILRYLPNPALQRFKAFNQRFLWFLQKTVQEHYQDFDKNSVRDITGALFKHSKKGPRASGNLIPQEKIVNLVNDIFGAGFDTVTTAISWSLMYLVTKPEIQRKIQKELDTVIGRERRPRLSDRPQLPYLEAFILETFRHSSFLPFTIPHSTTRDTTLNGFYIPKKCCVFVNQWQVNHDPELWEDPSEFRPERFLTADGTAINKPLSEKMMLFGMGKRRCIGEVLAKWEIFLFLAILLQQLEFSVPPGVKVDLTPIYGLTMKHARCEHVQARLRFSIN

[2] = target: T2, CYP3A4 (Homo sapiens, UniProt P08684); assay: Direct inhibition of CYP3A4 (midazolam and testosterone) in human liver microsomes; format: in vitro ADME; design: rows headed: % Control activity at; substrate Midazolam; concentration not given; duplicates; % Control activity at; substrate Testosterone; % Remaining; other: direct; CYP3A4-Midazolam Activity; risdiplam 0.20 μM; risdiplam 0.10 μM; dupl; conditions: for % Remaining / maximal inhibition: direct; for maximal inhibition: risdiplam tested up to 12.5 μM; for activity: pH 7.4, direct inhibition, read-out: % Control activity at
Target sequence in this assay (P08684 2-503): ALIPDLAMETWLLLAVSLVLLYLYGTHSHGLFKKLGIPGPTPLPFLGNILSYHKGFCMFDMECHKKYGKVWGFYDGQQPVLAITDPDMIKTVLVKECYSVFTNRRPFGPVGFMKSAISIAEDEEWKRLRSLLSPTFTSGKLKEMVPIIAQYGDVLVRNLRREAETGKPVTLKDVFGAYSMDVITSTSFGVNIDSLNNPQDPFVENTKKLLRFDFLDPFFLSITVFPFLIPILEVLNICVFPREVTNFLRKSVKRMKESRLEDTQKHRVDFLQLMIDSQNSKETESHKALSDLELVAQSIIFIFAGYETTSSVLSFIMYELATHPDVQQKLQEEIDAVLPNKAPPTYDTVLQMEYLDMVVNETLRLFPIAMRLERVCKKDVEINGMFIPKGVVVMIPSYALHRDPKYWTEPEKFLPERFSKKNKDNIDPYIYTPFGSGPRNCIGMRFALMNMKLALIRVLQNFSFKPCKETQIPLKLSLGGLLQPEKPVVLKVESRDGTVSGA

[3] = target: CYP2D6 (Homo sapiens, UniProt P10635); assay: in vitro; conditions: pooled human liver microsomes, pH 7.4, probe dextromethorphan, % Control activity at, direct inhibition, substrate Dextromethorphan, concentration not given, duplicates
[4] = target: T2, CYP3A4; conditions: microsomes, pH 7.4
Protocol: (§1) Donors CMV negative for serology are unm
(§2) All incubations were conducted in duplicate.
(§3) The first order rate constant for inactivation (λ or kabs) was estimated from slopes of the linear portion of the curves.
Target sequence in this assay (P08684 whole entry): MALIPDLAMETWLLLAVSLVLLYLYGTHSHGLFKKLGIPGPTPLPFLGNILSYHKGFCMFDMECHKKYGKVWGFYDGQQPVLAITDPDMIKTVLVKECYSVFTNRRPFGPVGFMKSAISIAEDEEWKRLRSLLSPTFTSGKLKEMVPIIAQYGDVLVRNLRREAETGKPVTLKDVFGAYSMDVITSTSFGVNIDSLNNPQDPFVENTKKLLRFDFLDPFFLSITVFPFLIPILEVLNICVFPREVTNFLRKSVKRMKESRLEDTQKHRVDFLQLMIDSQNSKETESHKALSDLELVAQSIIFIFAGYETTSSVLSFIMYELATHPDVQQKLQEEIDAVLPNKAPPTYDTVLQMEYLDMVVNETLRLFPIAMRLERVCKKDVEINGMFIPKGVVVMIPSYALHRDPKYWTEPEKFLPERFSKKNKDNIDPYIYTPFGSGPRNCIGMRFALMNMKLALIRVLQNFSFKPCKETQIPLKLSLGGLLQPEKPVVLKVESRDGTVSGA

[5] = test system: CYP3A4; conditions: human, pH 7.4
Protocol: as §1, §2, §3

[6] = target: T2, CYP3A4; assay: Direct inhibition of CYP3A4 (midazolam and testosterone) in human liver microsomes; format: in vitro ADME; conditions: human, microsomes
Target sequence in this assay (P08684 2-503): as the sequence (P08684 2-503) above

[7] = target: T3, CYP2C8 (Homo sapiens, UniProt P10632); assay: biochemical
T3 sequence (P10632 1-490): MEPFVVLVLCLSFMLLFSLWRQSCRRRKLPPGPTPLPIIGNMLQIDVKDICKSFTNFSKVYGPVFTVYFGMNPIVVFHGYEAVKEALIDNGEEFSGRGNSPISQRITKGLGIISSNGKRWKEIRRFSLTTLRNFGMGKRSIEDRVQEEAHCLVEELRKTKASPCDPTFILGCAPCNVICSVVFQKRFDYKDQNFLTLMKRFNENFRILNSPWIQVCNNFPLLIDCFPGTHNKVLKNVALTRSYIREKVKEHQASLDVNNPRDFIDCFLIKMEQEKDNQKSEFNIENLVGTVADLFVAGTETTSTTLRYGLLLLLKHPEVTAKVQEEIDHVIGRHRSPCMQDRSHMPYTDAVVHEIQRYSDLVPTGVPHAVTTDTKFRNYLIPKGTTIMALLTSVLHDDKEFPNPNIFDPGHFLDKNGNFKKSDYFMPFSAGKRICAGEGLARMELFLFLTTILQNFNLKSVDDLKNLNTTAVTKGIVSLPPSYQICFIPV

Chain of CYP2D6 (P10635 whole entry): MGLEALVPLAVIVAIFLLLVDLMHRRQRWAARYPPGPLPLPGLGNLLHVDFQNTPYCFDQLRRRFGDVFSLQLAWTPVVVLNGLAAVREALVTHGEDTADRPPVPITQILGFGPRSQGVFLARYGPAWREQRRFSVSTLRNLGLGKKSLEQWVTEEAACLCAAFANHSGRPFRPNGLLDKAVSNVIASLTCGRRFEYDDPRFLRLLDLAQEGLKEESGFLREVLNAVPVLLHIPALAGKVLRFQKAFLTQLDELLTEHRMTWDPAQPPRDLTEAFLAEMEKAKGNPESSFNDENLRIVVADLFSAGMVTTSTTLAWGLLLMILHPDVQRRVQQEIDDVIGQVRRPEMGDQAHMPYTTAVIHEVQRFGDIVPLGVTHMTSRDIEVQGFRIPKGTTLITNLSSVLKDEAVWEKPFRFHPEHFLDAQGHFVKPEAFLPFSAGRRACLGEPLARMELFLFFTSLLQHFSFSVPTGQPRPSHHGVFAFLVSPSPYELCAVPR

SMILES: Cc1cn2nc(-c3cc(=O)n4cc(N5CCNC6(CC6)C5)ccc4n3)cc(C)c2n1 [risdiplam, 7-(4,7-diazaspiro[2.5]octan-7-yl)-2-(2,8-dimethylimidazo[1,2-b]pyridazin-6-yl)pyrido[1,2-a]pyrimidin-4-one]
- activity [1]: 94%
- % Control activity at ([2]; direct inhibition, substrate Testosterone, concentration not given, duplicates): 46%
- % Remaining ([2]; CYP3A4-Midazolam Activity, risdiplam 0.10 μM, duplicates): 100% and 96%
- % Remaining ([2]; CYP3A4-Midazolam Activity, risdiplam 0.20 μM, duplicates): 99% and 102%
- % Remaining ([2]; CYP3A4-Midazolam Activity, risdiplam 0.50 μM, duplicates): 101% and 100%
- % Remaining ([2]; CYP3A4-Midazolam Activity, risdiplam 1.3 μM, duplicates): 108% and 91%
- % Remaining ([2]; CYP3A4-Midazolam Activity, risdiplam 3.2 μM, duplicates): 94% and 97%
- % Remaining ([2]; CYP3A4-Midazolam Activity, risdiplam 8.0 μM, duplicates): 84% and 83%
- % Remaining ([2]; CYP3A4-Midazolam Activity, risdiplam 12.5 μM, duplicates): 72%
- % Remaining ([2]; CYP3A4-Testosterone Activity, risdiplam 0.10 μM, duplicates): 98%
- % Remaining ([2]; CYP3A4-Testosterone Activity, risdiplam 0.20 μM, duplicates): 98% and 96%
- % Remaining ([2]; CYP3A4-Testosterone Activity, risdiplam 0.50 μM, duplicates): 96% and 95%
- % Remaining ([2]; CYP3A4-Testosterone Activity, risdiplam 1.3 μM, duplicates): 93% and 92%
- % Remaining ([2]; CYP3A4-Testosterone Activity, risdiplam 3.2 μM, duplicates): 78% and 79%
- % Remaining ([2]; CYP3A4-Testosterone Activity, risdiplam 8.0 μM, duplicates): 58%
- % Remaining ([2]; CYP3A4-Testosterone Activity, risdiplam 12.5 μM, duplicates): 44% and 46%
- maximal inhibition ([2]; midazolam as substrate): 28%
- maximal inhibition ([2]; testosterone as substrate): 55%
- IC50 ([2]; human, microsomes, pH 7.4, IC50, direct, CYP3A4-Testosterone Activity (6β-hydroxylation), testosterone 50 μM): 11 µM
- activity ([2]; human, microsomes, substrate Midazolam, concentration not given, duplicates): 72%
- activity ([2]; human, microsomes, substrate Testosterone, concentration not given, duplicates): 44%
- direct inhibition of CYP3A4/5 (in words) ([2]; midazolam 1′-hydroxylase and testosterone 6β-hydroxylase, up to 12.5 μM): low potential to cause direct inhibition; also recorded: some inhibition
- activity [3]: 97%
- Percent CYP3A4 activity remaining ([4]; 0 h, 0.1 μM): 100%
- Percent CYP3A4 activity remaining ([4]; 0 h, 0.2 μM): 100%
- Percent CYP3A4 activity remaining ([4]; 0 h, 0.5 μM): 100%
- Percent CYP3A4 activity remaining ([4]; 0 h, 1.3 μM): 100%
- Percent CYP3A4 activity remaining ([4]; 0 h, 3.2 μM): 100%
- Percent CYP3A4 activity remaining ([4]; 0 h, 8 μM): 100%
- Percent CYP3A4 activity remaining ([4]; 0 h, 12.5 μM): 100%
- Percent CYP3A4 activity remaining ([4]; 4 min, 0.1 μM): 90%
- Percent CYP3A4 activity remaining ([4]; 4 min, 0.2 μM): 90%
- Percent CYP3A4 activity remaining ([4]; 4 min, 0.5 μM): 87%
- Percent CYP3A4 activity remaining ([4]; 4 min, 1.3 μM): 82%
- Percent CYP3A4 activity remaining ([4]; 4 min, 3.2 μM): 89%
- Percent CYP3A4 activity remaining ([4]; 4 min, 8 μM): 76%
- Percent CYP3A4 activity remaining ([4]; 4 min, 12.5 μM): 62%
- Percent CYP3A4 activity remaining ([4]; 0.25 h, 0.1 μM): 80%
- Percent CYP3A4 activity remaining ([4]; 0.25 h, 0.2 μM): 80%
- Percent CYP3A4 activity remaining ([4]; 0.25 h, 0.5 μM): 77%
- Percent CYP3A4 activity remaining ([4]; 0.25 h, 1.3 μM): 71%
- Percent CYP3A4 activity remaining ([4]; 0.25 h, 3.2 μM): 62%
- Percent CYP3A4 activity remaining ([4]; 0.25 h, 8 μM): 41%
- Percent CYP3A4 activity remaining ([4]; 0.25 h, 12.5 μM): 29%
- Percent CYP3A4 activity remaining ([4]; 0.5 h, 0.1 μM): 78%
- Percent CYP3A4 activity remaining ([4]; 0.5 h, 0.2 μM): 78%
- Percent CYP3A4 activity remaining ([4]; 0.5 h, 0.5 μM): 75%
- Percent CYP3A4 activity remaining ([4]; 0.5 h, 1.3 μM): 65%
- Percent CYP3A4 activity remaining ([4]; 0.5 h, 3.2 μM): 49%
- Percent CYP3A4 activity remaining ([4]; 0.5 h, 8 μM): 25%
- Percent CYP3A4 activity remaining ([4]; 0.5 h, 12.5 μM): 17%
- Percent CYP3A4 activity remaining ([4]; 0.75 h, 0.1 μM): 72%
- Percent CYP3A4 activity remaining ([4]; 0.75 h, 0.2 μM): 72%
- Percent CYP3A4 activity remaining ([4]; 0.75 h, 0.5 μM): 68%
- Percent CYP3A4 activity remaining ([4]; 0.75 h, 1.3 μM): 55%
- Percent CYP3A4 activity remaining ([4]; 0.75 h, 3.2 μM): 39%
- Percent CYP3A4 activity remaining ([4]; 0.75 h, 8 μM): 19%
- Percent CYP3A4 activity remaining ([4]; 0.75 h, 12.5 μM): 13%
- Percent CYP3A4 activity remaining ([4]; 1 h, 0.1 μM): 65%
- Percent CYP3A4 activity remaining ([4]; 1 h, 0.2 μM): 65%
- Percent CYP3A4 activity remaining ([4]; 1 h, 0.5 μM): 59%
- Percent CYP3A4 activity remaining ([4]; 1 h, 1.3 μM): 48%
- Percent CYP3A4 activity remaining ([4]; 1 h, 3.2 μM): 36%
- Percent CYP3A4 activity remaining ([4]; 1 h, 8 μM): 15%
- Percent CYP3A4 activity remaining ([4]; 1 h, 12.5 μM): 10%
- KI [5]: 13 µM
- IC50 ([6]; pH 7.4, IC50, direct inhibition, substrate Midazolam): > 12.5 µM
- IC50 ([6]; pH 7.4, IC50, direct inhibition, substrate Testosterone): 11 µM
- IC50 ([6]; pH 7.4, IC50, direct, CYP3A4-Midazolam Activity): < 12.5 µM
- IC50 [7]: > 12.5 µM
